The record followed here is patent US20250304609A1, “POLYMORPHIC FORM OF CHALCONE GLYCOSIDE COMPOUND, AND PREPARATION METHOD AND APPLICATION THEREOF” (ZHEJIANG YONGNING PHARMACEUTICAL CO., LTD., priority 2022, published 2025).

For data set [1], the system named is cerebral ischemia-reperfusion in rats. Kind of data set: Cerebral ischemia-reperfusion rat model, comparative test of calcium salt YN17 and sodium salt YN17-ST. It is filed as in vivo. Conditions: 10 mg/kg tail vein after 1 h ischemia; 24 h; Mean ± SEM; model 51.37 ± 2.66. The protocol:
Establishment of cerebral ischemia-reperfusion rat models. Rats were anesthetized with pentobarbital sodium (45 mg/kg), the neck skin was prepared, the surgical skin was disinfected with iodophor, the neck skin was cut in the middle, the neck muscles were separated, and the left common carotid artery (CCA) was separated until the branches of the internal carotid artery (ICA) and external carotid artery (ECA) were exposed. […]
Determination of the extent of cerebral infarction. […] The area of each brain slice and the area of the infarcted area were measured by Image Pro software, and the percentage of the area of focuses of infarct to the total area was calculated.
The models were established and administered according to the similar method described above (YN17 (10 mg/kg) and YN17-ST (10 mg/kg) were injected into the tail vein immediately after blood supply to the middle cerebral artery of the rats was restored, and 5% glucose was injected into the tail vein in the model group. The rats were euthanized under anesthesia 24 hours after drug administration, and the extent of cerebral infarction was measured. The results were as follows: […]

A short description of data set [2]: Stability tests (accelerated and long-term) of salt and crystal forms. It is filed as physicochemical. Conditions: for Relevant substance, Single impurity / Relevant substance, Total impurities / Content determination: HPLC; for Content determination: content of C27H32O16; for pH: solution 5 mg per 1 ml in water. The protocol:
The crystal form A for the stability data in the following table is prepared by the method of Example 1. The intermediate was adopted, water was used as a system, calcium carbonate was added for reaction, the solution was filtered and then allowed to stand for crystallization, and subjected to suction filtration, and the filter cake was washed with water and dried by suction, and dried under reduced pressure at 30° C. for 4-6 hours to obtain the crystal form A.
For stability tests and inspection methods, please see the attached stability solutions and quality standards.
[Character] Ocular estimate method: this sample was a yellow powder.
[Examination] PH value: this sample was taken and added with water to make a solution containing 5 mg per 1 ml. According to the pH value determination method (Chinese Pharmacopoeia 2020 Edition Fourth General Rule 0631), the pH value should be 5.0-7.0.
Relevant substances. Determination of relevant substances was performed according to high-performance liquid chromatography (Chinese Pharmacopoeia 2020 Edition Fourth General Rule 0512).
Test sample solution. An appropriate amount of this sample was taken, accurately weighed, dissolved by addition of a diluent, and diluted quantitatively to prepare a solution containing 1.0 mg per 1 ml. The solution was shaken well, filtered through a microporous filter membrane (0.45 μm), and the subsequent filtrate was taken.
Chromatographic conditions. Octadecylsilane bonded silica gel was used as a filler: […] potassium dihydrogen phosphate solution (1.36 g of potassium dihydrogen phosphate was taken into a 1000 mL measuring flask, dissolved by addition of water, and diluted to the scale) was used as a mobile phase A, methanol was used as a mobile phase B, and gradient elution was performed according to the following table; the detection wavelength was 375 nm; and the injection volume was 5 μl.
Limit If there were impurity peaks in the chromatogram of the test sample solution, the area of a single impurity peak shall not be greater than 0.005 times (0.5%) the total peak area, and the sum of the areas of each impurity peak shall not be greater than 0.015 times (1.5%) the total peak area. Chromatographic peaks less than 0.02% of the peak area of the main component can be ignored.
Water content This sample was taken, and according to the method for water content determination (Chinese Pharmacopoeia 2020 Edition Fourth General Rule 0832 First Method), the water content shall not exceed 15.0%.
Calcium element Determination of calcium element was performed according to inductively coupled plasma mass spectrometry (Chinese Pharmacopoeia 2020 Edition Fourth General Rule 0412).
[Content determination] Content determination was performed according to high-performance liquid chromatography (Chinese Pharmacopoeia 2020 Edition Fourth General Rule 0512).
Chromatographic conditions. Octadecylsilane bonded silica gel was used as a filler, methanol-acetonitrile-water-phosphoric acid (26:2:72:0.04) was used as a mobile phase, and detection wavelength was 403 nm; and the injection volume was 10 μl.
Determination method. The test sample solution and comparative sample solution were accurately measured, and injected into the liquid chromatograph separately, and the chromatogram was recorded. The content of C27H32O16 in the test sample was calculated by the peak area according to the external standard method.

The test system of data set [3] is cerebral ischemia-reperfusion rat models. Description: Cerebral ischemia-reperfusion (MCAO) rat model, different doses of YN17. It is filed as in vivo, rats. Conditions: for Percentage of whole brain tissue infarction (%) / Symptom score: 3 mg/kg tail vein, Mean ± SD; for Percentage of whole brain tissue infarction (%): 24 h, TTC staining, model 17.61 ± 7.45; for Symptom score: 24 h after administration, 0-5 points, model 3.3 ± 0.7. The procedure:
Establishment of cerebral ischemia-reperfusion rat models. Rats were anesthetized with pentobarbital sodium (45 mg/kg), the neck skin was prepared, the surgical skin was disinfected with iodophor, the neck skin was cut in the middle, the neck muscles were separated, and the left common carotid artery (CCA) was separated until the branches of the internal carotid artery (ICA) and external carotid artery (ECA) were exposed. The proximal end of the common carotid artery was ligated, the distal end of the common carotid artery was clamped with an artery clip, an incision was made between the two ligated ends of the common carotid artery, the MCAO suture was inserted, and the suture was loosely ligated to the common carotid artery. The MCAO suture was inserted into the internal carotid artery, so that the suture reached the branches of the internal carotid artery to the middle cerebral artery (MCA), blocking the blood supply of the MCA and causing ischemia, the MCAO suture was fixed, and the surgical incision was sutured. After 1 h of ischemia, the MCAO suture was withdrawn into the common carotid artery to restore blood supply to the middle cerebral artery.
Drug administration. After the surgery, the rats were immediately injected with YN17 (5 mg/kg, 10 mg/kg and 20 mg/kg) via the tail vein, while the positive control group was injected with 3 mg/kg of edaravone via the tail vein. The rats were euthanized under anesthesia 24 hours after drug administration.
Animal neurobehavioral assessment. 24 hours after administration, the activity of the rats after landing was observed, and the behavior disorders of the rats were scored. The scoring method was as follows: • 0 points: no loss of neurological function and normal activity; • 1 point: failure to fully extend the left forepaw on the opposite side of the lesion; • 2 points: failure of the paralyzed side to resist the thrust from the opposite side; • 3 points: circling to the left side when crawling (tail-chasing sign); • 4 points: falling to the paralyzed side when shaking or walking; and • 5 points: trance or loss of consciousness.
Determination of the extent of cerebral infarction. The rats were euthanized under anesthesia 24 hours after drug administration. The brain was removed and rinsed with normal saline at 4° C. The brain was frozen at −80° C. for 10 min, and coronal slices with a thickness of 2 mm were cut from posterior to anterior, incubated in a 1% TTC solution for 10 min at 37° C., and fixed with formalin overnight after staining. The photos of the brain slices were taken and saved. The area of each brain slice and the area of the infarcted area were measured by Image Pro software, and the percentage of the area of focuses of infarct to the total area was calculated.

Setting [4] is: Accelerated 6 months, 40° C. ± 2° C./75% ± 5% RH.
Where [5] appears, read: Long-term 6 months, 25° C. ± 2° C./60% ± 5% RH.
Where [6] appears, read: 3 mg/kg, 24 h after modeling, p<0.001.

Where “and” joins values, the source holds several entries; their conditions need not be identical. Equal entries are not always repeated.

On to `O=C(C=Cc1ccc(O)cc1)C1=C(O)C(C2OC(CO)C(O)C(O)C2O)=C([O-])C(O)(C2OC(CO)C(O)C(O)C2O)C1=O.[Na+]` (stereo not shown) [YN17-ST], for which the “Percentage of hemispheric tissue infarction (%)” value in data set [1] was 23.35% and 23.35 ± 7.37 %. Further, in data set [2] (0 months), the Character entry is listed as “Yellow”; the Water content came out at 2.3%; the “Relevant substance, Single impurity” value turned out to be 0.36%; the “Relevant substance, Total impurities” value was found to be 0.95%. Moreover, in data set [2] (0 months), the Content determination was 95.3% and the pH turned out to be 6.0. In data set [2] (setting [4]), the Character result is listed as “Yellow”; the Water content was determined as 7.3%; the “Relevant substance, Single impurity” value is 6.41%; the “Relevant substance, Total impurities” value is reported as 9.53%. For the same compound, in data set [2] (setting [4]), the Content determination is reported as 81.5% and the pH is 6.8. In data set [2] (setting [5]), the Character result is recorded as “Yellow”; the Water content came to 5.7%; the “Relevant substance, Single impurity” value is recorded as 1.86%; the “Relevant substance, Total impurities” value worked out at 3.02%. Also, in data set [2] (setting [5]), the Content determination is reported as 91.7% and the pH stood at 6.4.

For `CC1=NN(c2ccccc2)C(=O)C1` [Edaravone, edaravone], in data set [3], the “Percentage of whole brain tissue infarction (%)” value was 10.58 ± 5.31 % and the Symptom score is on record as 2.1 ± 1.3. In addition, in data set [3] (listed as edaravone), the “Percentage of whole brain tissue infarction (%)” value is reported as “significantly inhibit” and the Symptom score entry is recorded as “significantly improve”. Further, in data set [3] (setting [6]), the “content of GSH-px in serum” value is given as “significantly increase” and the “content of SOD in serum” value was “significantly increase”.
